Source: patent US20240140933A1, “OXOINDOLINE COMPOUND FOR THE TREATMENT OF INFLAMMATORY DISEASES OR CANCER” (Hoffmann-La Roche Inc., priority 2021, published 2024)

Target: PDHK1 (Homo sapiens (Human), UniProt Q15118)
Test: PDHK1 enzymatic assay (AlphaScreen, phosphorylation of PDHE1 S293)
Type: biochemical
Settings: 1 nM PDHK1, 25 nM PDHE1, 20 μM ATP, 30° C. for 45 minutes
Description: Pyruvate dehydrogenase complex (PDHc) is an enzyme that catalyzes the reaction of pyruvate and a lipoamide to give the acetylated dihydrolipoamide and carbon dioxide. PDHc has three subunits E1, E2 and E3. E1 has 3 serine phosphorylation sites S293, S232, S300. If E1 was phosphorylated, PDH will be inactivated. PDHK can phosphorylate PDH protein (also named PDHE1) in PDH complex (PDC) to inactivate it.

PDHK1, sequence (Q15118 29-436): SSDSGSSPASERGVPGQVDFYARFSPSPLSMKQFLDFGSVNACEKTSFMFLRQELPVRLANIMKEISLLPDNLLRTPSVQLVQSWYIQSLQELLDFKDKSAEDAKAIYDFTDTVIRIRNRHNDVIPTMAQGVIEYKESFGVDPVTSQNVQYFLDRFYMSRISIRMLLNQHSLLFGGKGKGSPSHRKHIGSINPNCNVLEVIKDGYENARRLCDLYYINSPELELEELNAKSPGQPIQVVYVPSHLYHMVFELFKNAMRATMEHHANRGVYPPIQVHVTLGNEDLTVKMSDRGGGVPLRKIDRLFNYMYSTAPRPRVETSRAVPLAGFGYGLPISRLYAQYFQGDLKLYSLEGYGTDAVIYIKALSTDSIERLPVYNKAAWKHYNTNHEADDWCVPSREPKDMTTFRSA

Row | Structure (SMILES) | Enzymatic IC50 against PDHK1
1 | CCNc1cc(F)cc2c1NC(=O)C2(C)N1CCC[C@@H](NC(=O)C2CC3(C2)CN(C(=O)CCl)C3)C1 (stereo partly drawn) [Example 40, 2-(2-chloroacetyl)-N-[(3R)-1-[7-(ethylamino)-5-fluoro-3-methyl-2-oxo-indolin-3-yl]-3-piperidyl]-2-azaspiro[3.3]heptane-6-carboxamide] | 0.017 µg/mL
2 | CCNc1cc(F)cc2c1NC(=O)C2(C)N1CCCC(NC(=O)C2CC3(C2)CN(C#N)C3)C1 (stereo in doubt) [Example 37, 2-cyano-N-[(3R)-1-[7-(ethylamino)-5-fluoro-3-methyl-2-oxo-indolin-3-yl]-3-piperidyl]-2-azaspiro[3.3]heptane-6-carboxamide] | 0.039 µg/mL
3 | CCNc1cc(F)cc2c1NC(=O)C2(C)N1CCC[C@@H](Nc2ccc(C#N)cn2)C1 (stereo partly drawn) [Example 14, 6-[[(3R)-1-[7-(ethylamino)-5-fluoro-3-methyl-2-oxo-indolin-3-yl]-3-piperidyl]amino]pyridine-3-carbonitrile] | 0.007 µg/mL
4 | CCNc1cc(F)cc2c1NC(=O)C2(C)N1CCC[C@@H](Nc2ccc(S(=O)(=O)F)cn2)C1 (stereo partly drawn) [Example 29, 6-[[(3R)-1-[7-(ethylamino)-5-fluoro-3-methyl-2-oxo-indolin-3-yl]-3-piperidyl]amino]pyridine-3-sulfonyl fluoride] | 0.035 µg/mL
5 | CCNc1cc(F)cc2c1NC(=O)C2(C)N1CCC[C@@H](Nc2ccc(OS(=O)(=O)F)cc2)C1 (stereo partly drawn) [Example 32, 7-(ethylamino)-5-fluoro-3-methyl-2-oxo-3-[(3R)-3-(4-fluorosulfonyloxyanilino)-1-piperidyl]indoline] | 0.135 µg/mL
6 | CCNc1cc(F)cc2c1NC(=O)C2(CC)N1CCC[C@@H](N(C(C)=O)c2ccc(C#N)nc2)C1 (stereo partly drawn) [Example 25, N-(6-cyano-3-pyridyl)-N-[(3R)-1-[3-ethyl-7-(ethylamino)-5-fluoro-2-oxo-indolin-3-yl]-3-piperidyl]acetamide] | 0.142 µg/mL
7 | CCNc1cc(F)cc2c1NC(=O)C2(C)N1CCC[C@@H](Nc2cnc(C#N)nc2)C1 (stereo partly drawn) [Example 17, 5-[[(3R)-1-[7-(ethylamino)-5-fluoro-3-methyl-2-oxo-indolin-3-yl]-3-piperidyl]amino]pyrimidine-2-carbonitrile] | 0.012 µg/mL
8 | CCNc1cc(F)cc2c1NC(=O)C2(C)N1CCC[C@@H](Nc2cc(C)c(S(=O)(=O)F)cn2)C1 (stereo partly drawn) [Example 30, 4-methyl-6-[[(3R)-1-[7-(ethylamino)-5-fluoro-3-methyl-2-oxo-indolin-3-yl]-3-piperidyl]amino]pyridine-3-sulfonyl fluoride] | 0.065 µg/mL
9 | CCNc1cc(F)cc2c1NC(=O)C2(C)N1CCC[C@@H](Nc2ccc(C#N)c(O)c2)C1 (stereo partly drawn) [Example 9, 4-[[(3R)-1-[7-(ethylamino)-5-fluoro-3-methyl-2-oxo-indolin-3-yl]-3-piperidyl]amino]-2-hydroxy-benzonitrile] | 0.015 µg/mL
10 | CCNc1cc(F)cc2c1NC(=O)C2(C)N1CCC[C@@H](Cc2ccc(C(N)=O)cc2)C1 (stereo partly drawn) [Example 6, 4-[[(3S)-1-[7-(ethylamino)-5-fluoro-3-methyl-2-oxo-indolin-3-yl]-3-piperidyl]methyl]benzamide] | 0.143 µg/mL
11 | CCNc1cc(F)cc2c1NC(=O)C2(C)N1CCC[C@@H](Nc2cccc(OS(=O)(=O)F)c2)C1 (stereo partly drawn) [Example 31, 7-(ethylamino)-5-fluoro-3-methyl-2-oxo-3-[(3R)-3-(3-fluorosulfonyloxyanilino)-1-piperidyl]indoline] | 0.197 µg/mL
12 | CCNc1cc(F)cc2c1NC(=O)C2(C)N1CCC[C@@](C)(Nc2ccc(C#N)nc2)C1 (stereo partly drawn) [Example 23, 5-[[(3R)-1-[7-(ethylamino)-5-fluoro-3-methyl-2-oxo-indolin-3-yl]-3-methyl-3-piperidyl]amino]pyridine-2-carbonitrile] | 0.049 µg/mL
13 | CCNc1cc(F)cc2c1NC(=O)C2(C)N1CCC[C@@H](Nc2ccc(C#N)nn2)C1 (stereo partly drawn) [Example 16, 6-[[(3R)-1-[7-(ethylamino)-5-fluoro-3-methyl-2-oxo-indolin-3-yl]-3-piperidyl]amino]pyridazine-3-carbonitrile] | 0.047 µg/mL
14 | CCNc1cc(F)cc2c1NC(=O)C2(C)N1CCC[C@@H](Nc2ccc(CO)nc2)C1 (stereo partly drawn) [Example 18, 7-(ethylamino)-5-fluoro-3-[(3R)-3-[[6-(hydroxymethyl)-3-pyridyl]amino]-1-piperidyl]-3-methyl-indolin-2-one] | 0.059 µg/mL
15 | CCNc1cc(F)cc2c1NC(=O)C2(C)N1CCC[C@@H](NC(=O)c2ccc(S(=O)(=O)F)cc2)C1 (stereo partly drawn) [Example 43, 4-[[(3R)-1-[7-(ethylamino)-5-fluoro-3-methyl-2-oxo-indolin-3-yl]-3-piperidyl]carbamoyl]benzenesulfonyl fluoride] | 0.016 µg/mL
16 | CCNc1cc(F)cc2c1NC(=O)C2(C)N1CC[C@H](c2ccccc2Oc2ccc(C#N)cc2)[C@@H](NC(C)=O)C1 (stereo partly drawn) [Example 58, N-[(3R,4R)-4-[2-(4-cyanophenoxy)phenyl]-1-[7-(ethylamino)-5-fluoro-3-methyl-2-oxo-indolin-3-yl]-3-piperidyl]acetamide] | 0.03 µg/mL

Now from value to molecule:

Row | Enzymatic IC50 against PDHK1 | Structure (SMILES)
17 | 0.014 µg/mL | CCNc1cc(F)cc2c1NC(=O)C2(C)N1CC[C@H](O)[C@@H](Nc2ccc(C#N)nc2)C1 (stereo partly drawn) [Example 50, 5-[[(3S,4S)-1-[7-(ethylamino)-5-fluoro-3-methyl-2-oxo-indolin-3-yl]-4-hydroxy-3-piperidyl]amino]pyridine-2-carbonitrile]
18 | 0.032 µg/mL | C=CS(=O)(=O)c1ccc(N[C@@H]2CCCN(C3(C)C(=O)Nc4c(NCC)cc(F)cc43)C2)cc1 (stereo partly drawn) [Example 34, 7-(ethylamino)-5-fluoro-3-methyl-3-[(3R)-3-(4-vinylsulfonylanilino)-1-piperidyl]indolin-2-one]
19 | 0.024 µg/mL | CCNc1cc(F)cc2c1NC(=O)C2(C)N1CCC[C@@H](Nc2cnc(C#N)c(Cl)c2)C1 (stereo partly drawn) [Example 22, 3-chloro-5-[[(3R)-1-[7-(ethylamino)-5-fluoro-3-methyl-2-oxo-indolin-3-yl]-3-piperidyl]amino]pyridine-2-carbonitrile]
20 | 0.019 µg/mL | CCNc1cc(F)cc2c1NC(=O)C2(C)N1CC[C@H](c2ccccc2Oc2ccc(C(N)=O)cc2)[C@@H](NC(C)=O)C1 (stereo partly drawn) [Example 57, 4-[2-[(3R,4R)-3-acetamido-1-[7-(ethylamino)-5-fluoro-3-methyl-2-oxo-indolin-3-yl]-4-piperidyl]phenoxy]benzamide]
21 | 0.067 µg/mL | CCNc1cc(F)cc2c1NC(=O)C2(CC)N1CCC[C@@H](N(C(N)=O)c2ccc(C#N)nc2)C1 (stereo partly drawn) [Example 26, 1-(6-cyano-3-pyridyl)-1-[(3R)-1-[3-ethyl-7-(ethylamino)-5-fluoro-2-oxo-indolin-3-yl]-3-piperidyl]urea]
22 | 0.017 µg/mL | CCNc1cc(F)cc2c1NC(=O)C2(C)N1CC[C@@H](O)[C@@H](Nc2ccc(C#N)nc2)C1 (stereo partly drawn) [Example 51, 5-[[(3S,4R)-1-[7-(ethylamino)-5-fluoro-3-methyl-2-oxo-indolin-3-yl]-4-hydroxy-3-piperidyl]amino]pyridine-2-carbonitrile]
23 | 0.046 µg/mL | CCNc1cc(F)cc2c1NC(=O)C2(C)N1CCC[C@@H](Cc2ccc(C(=O)O)cc2)C1 (stereo partly drawn) [Example 5, 4-[[(3S)-1-[7-(ethylamino)-5-fluoro-3-methyl-2-oxo-indolin-3-yl]-3-piperidyl]methyl]benzoic acid]
24 | 0.009 µg/mL | CCNc1cc(F)cc2c1NC(=O)C2(C)N1CC[C@H](c2ccccc2)[C@@H](NC(=O)C2CN(C#N)C2)C1 (stereo partly drawn) [Example 54, 1-cyano-N-[(3R,4R)-1-[7-(ethylamino)-5-fluoro-3-methyl-2-oxo-indolin-3-yl]-4-phenyl-3-piperidyl]azetidine-3-carboxamide]
25 | 0.005 µg/mL | CCNc1cc(F)cc2c1NC(=O)C2(C)N1CC[C@H](c2ccccc2Oc2ccc(C(=O)O)cc2)[C@@H](NC(C)=O)C1 (stereo partly drawn) [Example 56, 4-[2-[(3R,4R)-3-acetamido-1-[7-(ethylamino)-5-fluoro-3-methyl-2-oxo-indolin-3-yl]-4-piperidyl]phenoxy]benzoic acid]

Same assay, conditions: 1 nM PDHK1, 25 nM PDHE1, 20 μM ATP, 30° C. for 45 minutes; read-out: Enzymatic IC50 against PDHK1 (converted)

Row | IC50 | Structure (SMILES)
26 | 21.2 nM | CCNc1cc(F)cc2c1NC(=O)[C@@]2(C)N1CC[C@@H](c2ccccc2)[C@@H](C(=O)NC)C1 [Example 60B, (3R,4R)-1-[(3S)-7-(ethylamino)-5-fluoro-3-methyl-2-oxo-indolin-3-yl]-N-methyl-4-phenyl-piperidine-3-carboxamide]
27 | 47.3 nM | CCNc1cc(F)cc2c1NC(=O)[C@@]2(C)N1CC[C@@H](c2ccccc2)[C@@H](C(=O)Nc2ccccc2)C1 [Example 61B, (3R,4R)-1-[(3S)-7-(ethylamino)-5-fluoro-3-methyl-2-oxo-indolin-3-yl]-N,4-diphenyl-piperidine-3-carboxamide]
28 | 379 nM | CCNc1cc(F)cc2c1NC(=O)C2(C)N1CCC[C@@H](Cc2ccc(C#N)cc2)C1 (stereo partly drawn) [Example 7, 4-[[(3S)-1-[7-(ethylamino)-5-fluoro-3-methyl-2-oxo-indolin-3-yl]-3-piperidyl]methyl]benzonitrile]
29 | 75.9 nM | CCNc1cc(F)cc2c1NC(=O)[C@@]2(C)N1CC[C@@H](c2ccccc2)[C@@H](C(=O)NCc2ccccc2)C1 [Example 62B, (3R,4R)-N-benzyl-1-[(3S)-7-(ethylamino)-5-fluoro-3-methyl-2-oxo-indolin-3-yl]-4-phenyl-piperidine-3-carboxamide]

Row | Structure (SMILES) | IC50
30 | CCNc1cc(F)cc2c1NC(=O)[C@@]2(C)N1CCC[C@@H](Oc2ccc(S(=O)(=O)F)c(OC)c2)C1 [Example 4B, 4-[[(3R)-1-[(3S)-7-(ethylamino)-5-fluoro-3-methyl-2-oxo-indolin-3-yl]-3-piperidyl]oxy]-2-methoxy-benzenesulfonyl fluoride] | 109 nM
